Assay results published in ChEMBL document CHEMBL4507279, “Data for DCP probe BI-9627” (2021).

Assays:
[1] = target: Serine/threonine-protein kinase Nek5 (Homo sapiens) (UniProt Q6P3R8); conditions: Compound concentration 1000.0 nM
[2] = target: Serine/threonine-protein kinase 32B (Homo sapiens) (UniProt Q9NY57); conditions: Compound concentration 1000.0 nM
[3] = target: Cyclin-dependent kinase 7 (Homo sapiens) (UniProt P50613); conditions: Compound concentration 1000.0 nM
[4] = target: Ribosomal protein S6 kinase alpha-4 (Homo sapiens) (UniProt O75676); conditions: Compound concentration 1000.0 nM
Chain of Ribosomal protein S6 kinase alpha-4 (Homo sapiens) (O75676 whole entry, looked up): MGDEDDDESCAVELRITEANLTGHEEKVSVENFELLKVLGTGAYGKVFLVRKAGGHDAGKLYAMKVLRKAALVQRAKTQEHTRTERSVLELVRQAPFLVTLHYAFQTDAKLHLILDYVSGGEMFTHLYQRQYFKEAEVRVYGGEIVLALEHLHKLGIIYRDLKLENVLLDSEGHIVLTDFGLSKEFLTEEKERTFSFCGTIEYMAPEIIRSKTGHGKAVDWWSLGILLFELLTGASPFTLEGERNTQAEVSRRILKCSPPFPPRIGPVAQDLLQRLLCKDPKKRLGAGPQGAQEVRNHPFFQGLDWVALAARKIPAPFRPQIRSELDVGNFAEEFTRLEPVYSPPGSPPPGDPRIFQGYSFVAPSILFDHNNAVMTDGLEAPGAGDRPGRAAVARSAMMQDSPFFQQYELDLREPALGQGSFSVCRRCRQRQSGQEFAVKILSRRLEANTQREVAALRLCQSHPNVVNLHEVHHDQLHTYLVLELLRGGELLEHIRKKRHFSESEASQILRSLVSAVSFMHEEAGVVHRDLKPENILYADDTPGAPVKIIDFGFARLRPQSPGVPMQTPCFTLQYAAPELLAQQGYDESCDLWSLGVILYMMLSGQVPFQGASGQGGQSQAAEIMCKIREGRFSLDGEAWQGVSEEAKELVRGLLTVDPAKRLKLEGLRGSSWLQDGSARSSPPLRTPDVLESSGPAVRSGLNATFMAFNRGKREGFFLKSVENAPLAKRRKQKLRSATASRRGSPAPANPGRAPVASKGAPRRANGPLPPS

[5] = target: Dual specificity testis-specific protein kinase 1 (Homo sapiens) (UniProt Q15569); conditions: Compound concentration 1000.0 nM
Chain of Dual specificity testis-specific protein kinase 1 (Homo sapiens) (Q15569 whole entry, looked up): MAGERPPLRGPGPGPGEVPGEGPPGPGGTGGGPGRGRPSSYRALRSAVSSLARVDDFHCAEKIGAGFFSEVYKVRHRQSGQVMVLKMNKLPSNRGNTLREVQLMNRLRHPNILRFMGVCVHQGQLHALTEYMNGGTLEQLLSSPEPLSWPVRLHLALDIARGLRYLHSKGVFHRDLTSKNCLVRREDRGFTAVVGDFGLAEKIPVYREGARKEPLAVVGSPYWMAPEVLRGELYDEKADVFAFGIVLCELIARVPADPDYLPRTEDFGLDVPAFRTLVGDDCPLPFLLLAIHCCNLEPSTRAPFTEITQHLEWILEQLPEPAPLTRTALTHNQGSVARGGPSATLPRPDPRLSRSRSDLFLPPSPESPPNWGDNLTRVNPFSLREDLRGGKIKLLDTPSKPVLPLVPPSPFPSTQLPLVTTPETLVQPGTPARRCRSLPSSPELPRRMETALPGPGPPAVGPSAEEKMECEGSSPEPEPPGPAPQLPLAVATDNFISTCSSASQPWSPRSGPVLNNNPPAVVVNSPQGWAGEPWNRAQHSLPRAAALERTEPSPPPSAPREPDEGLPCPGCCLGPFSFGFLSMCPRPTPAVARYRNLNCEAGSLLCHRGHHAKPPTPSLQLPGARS

[6] = target: STE20-like serine/threonine-protein kinase (Homo sapiens) (UniProt Q9H2G2); conditions: Compound concentration 1000.0 nM
[7] = target: Phosphatidylinositol 4-phosphate 5-kinase type-1 alpha (Homo sapiens) (UniProt Q99755); conditions: Compound concentration 1000.0 nM
[8] = tested on: Receptor-type tyrosine-protein kinase FLT3 (Homo sapiens), P36888 [R834Q]; conditions: Compound concentration 1000.0 nM
[9] = target: Cytoplasmic tyrosine-protein kinase BMX (Homo sapiens) (UniProt P51813); conditions: Compound concentration 1000.0 nM
Chain of Cytoplasmic tyrosine-protein kinase BMX (Homo sapiens) (P51813 whole entry): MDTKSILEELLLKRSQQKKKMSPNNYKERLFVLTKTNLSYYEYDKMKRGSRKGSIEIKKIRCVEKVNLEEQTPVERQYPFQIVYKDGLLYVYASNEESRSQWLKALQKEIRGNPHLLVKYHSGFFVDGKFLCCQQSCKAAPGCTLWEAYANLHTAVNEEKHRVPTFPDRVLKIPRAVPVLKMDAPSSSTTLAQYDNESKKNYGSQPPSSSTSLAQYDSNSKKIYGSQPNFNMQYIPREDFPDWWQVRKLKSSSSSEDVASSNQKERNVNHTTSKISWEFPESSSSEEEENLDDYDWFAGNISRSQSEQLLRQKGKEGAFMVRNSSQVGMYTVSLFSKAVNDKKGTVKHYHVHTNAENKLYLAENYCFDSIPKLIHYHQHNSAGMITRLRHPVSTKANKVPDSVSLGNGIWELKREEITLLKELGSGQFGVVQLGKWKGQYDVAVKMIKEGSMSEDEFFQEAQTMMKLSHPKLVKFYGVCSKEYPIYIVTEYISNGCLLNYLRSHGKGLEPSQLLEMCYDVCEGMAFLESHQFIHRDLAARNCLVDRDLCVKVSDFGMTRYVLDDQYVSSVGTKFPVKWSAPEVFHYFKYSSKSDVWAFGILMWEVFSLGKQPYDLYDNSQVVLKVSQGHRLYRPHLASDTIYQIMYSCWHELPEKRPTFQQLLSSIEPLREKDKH

[10] = target: Serine/threonine-protein kinase 3 (Homo sapiens) (UniProt Q13188); conditions: Compound concentration 1000.0 nM
[11] = target: T1, D(4) dopamine receptor (Homo sapiens) (UniProt P21917); conditions: Compound concentration 10.0 uM
T1 sequence (whole entry): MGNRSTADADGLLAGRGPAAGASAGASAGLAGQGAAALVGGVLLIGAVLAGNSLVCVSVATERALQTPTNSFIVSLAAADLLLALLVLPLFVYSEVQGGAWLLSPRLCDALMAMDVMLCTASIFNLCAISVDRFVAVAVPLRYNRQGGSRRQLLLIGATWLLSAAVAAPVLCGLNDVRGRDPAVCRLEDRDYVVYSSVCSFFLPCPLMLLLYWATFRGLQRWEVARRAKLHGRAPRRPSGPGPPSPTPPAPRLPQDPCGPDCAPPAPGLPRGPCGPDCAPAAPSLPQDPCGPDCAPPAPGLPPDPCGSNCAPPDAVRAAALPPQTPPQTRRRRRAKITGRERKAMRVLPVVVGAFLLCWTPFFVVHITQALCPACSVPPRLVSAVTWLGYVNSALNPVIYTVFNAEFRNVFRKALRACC

[12] = target: Ephrin type-A receptor 1 (Homo sapiens) (UniProt P21709); conditions: Compound concentration 1000.0 nM
Chain of Ephrin type-A receptor 1 (Homo sapiens) (P21709 whole entry): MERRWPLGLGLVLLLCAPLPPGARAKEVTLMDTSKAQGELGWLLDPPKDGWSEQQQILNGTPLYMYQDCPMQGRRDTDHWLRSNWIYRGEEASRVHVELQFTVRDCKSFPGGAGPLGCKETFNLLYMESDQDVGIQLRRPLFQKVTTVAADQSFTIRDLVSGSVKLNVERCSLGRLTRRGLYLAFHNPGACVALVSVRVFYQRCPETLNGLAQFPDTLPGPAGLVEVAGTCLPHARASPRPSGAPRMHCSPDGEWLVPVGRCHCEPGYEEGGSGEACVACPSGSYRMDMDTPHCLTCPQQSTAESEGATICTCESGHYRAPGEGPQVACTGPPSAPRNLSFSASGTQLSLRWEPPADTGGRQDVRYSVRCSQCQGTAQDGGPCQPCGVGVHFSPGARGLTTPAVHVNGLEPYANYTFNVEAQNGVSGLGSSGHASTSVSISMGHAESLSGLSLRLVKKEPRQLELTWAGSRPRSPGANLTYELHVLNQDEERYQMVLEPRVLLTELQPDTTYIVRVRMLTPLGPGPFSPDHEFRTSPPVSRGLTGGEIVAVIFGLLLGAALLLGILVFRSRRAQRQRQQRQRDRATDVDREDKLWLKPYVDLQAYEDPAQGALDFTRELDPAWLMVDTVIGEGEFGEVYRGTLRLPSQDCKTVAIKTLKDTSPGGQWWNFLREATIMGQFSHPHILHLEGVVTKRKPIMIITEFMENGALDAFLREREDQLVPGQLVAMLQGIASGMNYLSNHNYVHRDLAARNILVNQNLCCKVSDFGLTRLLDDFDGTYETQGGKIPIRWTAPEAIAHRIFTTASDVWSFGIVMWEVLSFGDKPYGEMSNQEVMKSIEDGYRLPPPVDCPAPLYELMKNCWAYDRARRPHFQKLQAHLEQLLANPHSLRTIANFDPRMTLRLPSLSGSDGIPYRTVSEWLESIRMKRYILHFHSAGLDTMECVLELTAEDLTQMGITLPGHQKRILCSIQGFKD

[13] = target: Dual specificity mitogen-activated protein kinase kinase 6 (Homo sapiens) (UniProt P52564); conditions: Compound concentration 1000.0 nM
[14] = target: Serine/threonine-protein kinase BRSK2 (Homo sapiens) (UniProt Q8IWQ3); conditions: Compound concentration 1000.0 nM
[15] = target: Mitogen-activated protein kinase 3 (Homo sapiens) (UniProt P27361); conditions: Compound concentration 1000.0 nM
[16] = target: Serine/threonine-protein kinase PRP4 homolog (Homo sapiens) (UniProt Q13523); conditions: Compound concentration 1000.0 nM
[17] = target: Rho-associated protein kinase 1 (Homo sapiens) (UniProt Q13464); conditions: Compound concentration 1000.0 nM
[18] = target: Serine/threonine-protein kinase RIO1 (Homo sapiens) (UniProt Q9BRS2); conditions: Compound concentration 1000.0 nM
[19] = target: D(1B) dopamine receptor (Homo sapiens) (UniProt P21918); conditions: Compound concentration 10.0 uM
[20] = target: RAC-beta serine/threonine-protein kinase (Homo sapiens) (UniProt P31751); conditions: Compound concentration 1000.0 nM
[21] = target: Leucine-rich repeat serine/threonine-protein kinase 2 (Homo sapiens) (UniProt Q5S007); conditions: Compound concentration 1000.0 nM
[22] = target: Ephrin type-A receptor 4 (Homo sapiens) (UniProt P54764); conditions: Compound concentration 1000.0 nM
[23] = target: Phosphatidylinositol 5-phosphate 4-kinase type-2 gamma (Homo sapiens) (UniProt Q8TBX8); conditions: Compound concentration 1000.0 nM
[24] = target: Sodium-dependent serotonin transporter (Homo sapiens) (UniProt P31645); conditions: Compound concentration 10.0 uM
[25] = target: Beta-adrenergic receptor kinase 1 (Homo sapiens) (UniProt P25098); conditions: Compound concentration 1000.0 nM
[26] = target: Alpha-1D adrenergic receptor (Homo sapiens, UniProt P25100); experiment: GPCRScan assay: inhibition of Alpha1D; design: radioligand conc. used [nm] 0.3 – 1.0, parental cells stable
[27] = species: Rattus norvegicus; conditions: Compound concentration 10.0 uM
[28] = target: Fibroblast growth factor receptor 2 (Homo sapiens) (UniProt P21802); conditions: Compound concentration 1000.0 nM
Chain of Fibroblast growth factor receptor 2 (Homo sapiens) (P21802 22-821 limits assumed): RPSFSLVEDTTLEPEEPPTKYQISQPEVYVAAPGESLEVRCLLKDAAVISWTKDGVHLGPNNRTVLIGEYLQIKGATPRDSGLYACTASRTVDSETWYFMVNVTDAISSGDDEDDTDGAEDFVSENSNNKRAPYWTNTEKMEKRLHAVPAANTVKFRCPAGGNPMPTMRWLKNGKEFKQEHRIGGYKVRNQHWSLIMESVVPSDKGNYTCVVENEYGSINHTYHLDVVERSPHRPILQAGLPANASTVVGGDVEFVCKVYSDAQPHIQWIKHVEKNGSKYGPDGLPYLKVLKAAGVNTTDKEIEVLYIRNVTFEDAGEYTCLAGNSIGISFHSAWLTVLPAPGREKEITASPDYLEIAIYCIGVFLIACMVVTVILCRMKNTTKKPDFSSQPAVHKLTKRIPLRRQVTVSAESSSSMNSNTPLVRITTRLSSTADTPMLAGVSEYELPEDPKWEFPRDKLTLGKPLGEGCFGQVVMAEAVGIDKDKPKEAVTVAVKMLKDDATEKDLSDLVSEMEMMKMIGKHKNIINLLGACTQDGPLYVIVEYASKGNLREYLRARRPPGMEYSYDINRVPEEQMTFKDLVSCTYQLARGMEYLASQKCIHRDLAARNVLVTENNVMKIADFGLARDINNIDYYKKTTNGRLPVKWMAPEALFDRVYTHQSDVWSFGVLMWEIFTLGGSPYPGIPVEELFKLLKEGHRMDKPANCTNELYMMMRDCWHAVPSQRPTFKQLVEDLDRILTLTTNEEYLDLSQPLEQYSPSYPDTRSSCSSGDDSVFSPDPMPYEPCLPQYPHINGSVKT

[29] = target: Cyclin-dependent kinase 16 (Homo sapiens) (UniProt Q00536); conditions: Compound concentration 1000.0 nM
[30] = tested on: Fibroblast growth factor receptor 3 (Homo sapiens), P22607 [G697C]; conditions: Compound concentration 1000.0 nM
[31] = target: Protein kinase C epsilon type (Homo sapiens) (UniProt Q02156); conditions: Compound concentration 1000.0 nM
Chain of Protein kinase C epsilon type (Homo sapiens) (Q02156 whole entry): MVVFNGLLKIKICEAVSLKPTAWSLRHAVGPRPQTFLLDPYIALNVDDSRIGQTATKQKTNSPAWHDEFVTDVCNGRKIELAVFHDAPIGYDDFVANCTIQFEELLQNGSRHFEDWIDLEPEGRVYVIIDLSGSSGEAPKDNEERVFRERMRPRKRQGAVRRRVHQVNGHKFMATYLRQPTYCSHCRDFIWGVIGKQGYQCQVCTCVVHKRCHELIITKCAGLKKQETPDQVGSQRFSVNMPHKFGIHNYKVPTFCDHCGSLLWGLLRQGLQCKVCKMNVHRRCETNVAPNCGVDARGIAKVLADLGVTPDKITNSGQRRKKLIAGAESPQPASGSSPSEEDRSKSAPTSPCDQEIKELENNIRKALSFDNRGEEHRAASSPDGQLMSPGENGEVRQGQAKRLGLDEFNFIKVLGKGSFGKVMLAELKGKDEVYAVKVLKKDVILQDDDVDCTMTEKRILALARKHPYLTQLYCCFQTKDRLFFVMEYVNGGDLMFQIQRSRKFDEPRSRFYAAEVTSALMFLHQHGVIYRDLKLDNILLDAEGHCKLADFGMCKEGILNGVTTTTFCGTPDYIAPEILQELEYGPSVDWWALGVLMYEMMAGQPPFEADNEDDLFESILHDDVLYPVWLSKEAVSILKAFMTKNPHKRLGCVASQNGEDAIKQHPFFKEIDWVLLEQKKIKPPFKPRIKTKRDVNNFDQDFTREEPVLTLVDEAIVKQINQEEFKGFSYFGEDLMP

[32] = target: Dual specificity tyrosine-phosphorylation-regulated kinase 2 (Homo sapiens) (UniProt Q92630); conditions: Compound concentration 1000.0 nM
[33] = tested on: Tyrosine-protein kinase ABL1 (Homo sapiens), P00519 [F317I]; conditions: Compound concentration 1000.0 nM
[34] = target: Atypical kinase COQ8A, mitochondrial (Homo sapiens) (UniProt Q8NI60); conditions: Compound concentration 1000.0 nM
Chain of Atypical kinase COQ8A, mitochondrial (Homo sapiens) (Q8NI60 163-647 limits assumed): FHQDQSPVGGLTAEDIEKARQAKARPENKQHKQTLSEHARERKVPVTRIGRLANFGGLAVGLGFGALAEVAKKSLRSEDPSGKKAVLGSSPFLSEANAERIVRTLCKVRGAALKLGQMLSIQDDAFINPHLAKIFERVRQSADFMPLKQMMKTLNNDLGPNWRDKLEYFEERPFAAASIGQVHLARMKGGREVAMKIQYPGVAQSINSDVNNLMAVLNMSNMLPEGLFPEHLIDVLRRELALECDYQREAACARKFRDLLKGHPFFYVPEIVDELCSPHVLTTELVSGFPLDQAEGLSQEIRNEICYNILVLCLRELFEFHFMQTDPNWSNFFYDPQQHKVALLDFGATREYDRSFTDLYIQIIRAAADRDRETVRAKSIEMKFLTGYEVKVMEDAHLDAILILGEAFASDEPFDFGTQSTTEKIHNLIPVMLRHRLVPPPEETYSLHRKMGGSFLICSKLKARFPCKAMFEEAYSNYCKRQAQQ

[35] = target: Ephrin type-B receptor 3 (Homo sapiens) (UniProt P54753); conditions: Compound concentration 1000.0 nM
[36] = target: Microtubule-associated serine/threonine-protein kinase 1 (Homo sapiens) (UniProt Q9Y2H9); conditions: Compound concentration 1000.0 nM
[37] = target: Ephrin type-B receptor 4 (Homo sapiens) (UniProt P54760); conditions: Compound concentration 1000.0 nM
[38] = target: Bone morphogenetic protein receptor type-1A (Homo sapiens) (UniProt P36894); conditions: Compound concentration 1000.0 nM
[39] = target: Serine/threonine-protein kinase D3 (Homo sapiens) (UniProt O94806); conditions: Compound concentration 1000.0 nM
[40] = target: Interleukin-1 receptor-associated kinase 4 (Homo sapiens) (UniProt Q9NWZ3); conditions: Compound concentration 1000.0 nM

Compound: CC(=O)N1CCC(c2ccc(C(=O)NC3=NCCN3)cc2C(F)(F)F)CC1 [BI 0054]
- residual activity [1]: 100%
- residual activity [2]: 100%
- residual activity [3]: 89%
- residual activity [4]: 81%
- residual activity [5]: 72%
- residual activity [6]: 94%
- residual activity [7]: 100%
- residual activity [8]: 100%
- residual activity [9]: 100%
- residual activity [10]: 100%
- inhibition [11]: -5.64%
- residual activity [12]: 88%
- residual activity [13]: 100%
- residual activity [14]: 100%
- residual activity [15]: 100%
- residual activity [16]: 100%
- residual activity [17]: 0.5%
- residual activity [18]: 100%
- inhibition [19]: -9.82%
- residual activity [20]: 91%
- residual activity [21]: 100%
- residual activity [22]: 100%
- residual activity [23]: 94%
- inhibition [24]: 11.8%
- residual activity [25]: 77%
- Ki [26]: 10 µM
- inhibition [27]: -2.17%
- residual activity [28]: 86%
- residual activity [29]: 84%
- residual activity [30]: 87%
- residual activity [31]: 84%
- residual activity [32]: 93%
- residual activity [33]: 94%
- residual activity [34]: 95%
- residual activity [35]: 93%
- residual activity [36]: 87%
- residual activity [37]: 100%
- residual activity [38]: 100%
- residual activity [39]: 100%
- residual activity [40]: 89%

Compound: CC(=O)N1CCC(c2ccc(C(=O)NC(=N)N)cc2C(F)(F)F)CC1 [BI 9627]
- residual activity [1]: 100%
- residual activity [2]: 89%
- residual activity [3]: 86%
- residual activity [4]: 100%
- residual activity [5]: 95%
- residual activity [6]: 100%
- residual activity [7]: 94%
- residual activity [8]: 93%
- residual activity [9]: 100%
- residual activity [10]: 100%
- inhibition [11]: -5.7%
- residual activity [12]: 100%
- residual activity [13]: 100%
- residual activity [14]: 100%
- residual activity [15]: 100%
- residual activity [16]: 78%
- residual activity [17]: 87%
- residual activity [18]: 100%
- inhibition [19]: -8.21%
- residual activity [20]: 99%
- residual activity [21]: 100%
- residual activity [22]: 100%
- residual activity [23]: 100%
- inhibition [24]: 21.4%
- residual activity [25]: 96%
- Ki [26]: 10 µM
- inhibition [27]: 6.39%
- residual activity [28]: 100%
- residual activity [29]: 91%
- residual activity [30]: 98%
- residual activity [31]: 100%
- residual activity [32]: 89%
- residual activity [33]: 96%
- residual activity [34]: 96%
- residual activity [35]: 97%
- residual activity [36]: 49%
- residual activity [37]: 100%
- residual activity [38]: 100%
- residual activity [39]: 80%
- residual activity [40]: 100%
